Experimental data as given in patent US10888545B2, “Compositions and methods for treating estrogen-related medical disorders” (THE BOARD OF TRUSTEES OF THE UNIVERSITY OF ILLINOIS, priority 2012, dated 2021).
Read-outs that look alike come from different tables or passages of the source.

Legend:
T47D:A18/neo cells [1] = test: DNA growth assay (2D culture), T47D:A18/neo; assay type: cell-based; details: only the higher concentration, 100 nM, E2 1 nM
T47D:A18/PKCα cells [2] = test: DNA growth assay (2D culture), T47D:A18/PKCα; assay type: cell-based; details: E2-free media, 1 nM, 10 nM, 100 nM
T47D:A18/neo cells [3] = test: Colony formation assay in […], T47D:A18/neo; assay type: cell-based; details: 3D culture, 10 days; E2 1 nM, BTC 100 nM, TTC-352 100 nM
Protocol: (§1) Colony formation assay in […] Matrix. […] (Becton Dickinson, Franklin Lakes, N.J. USA) was thawed overnight at 4° C. Twelve-well plates were coated with 200 μL […]/well and incubated at 37° C. for 30 min. Cells were suspended at 5×103 in 400 μL of phenol red-free RPMI 1640 and spread onto pre-gelled […] and allowed to incubate at 37° C. for 30 minutes, and 360 μL of treatment media containing 40 μL […] was then added. Plates were incubated at 37° C. for 10 days; medium containing 10% […] was replaced to the top of the […] every 3 days. Colonies were stained with crystal violet on day 10 and each well was counted by light microscopy (20×).
(§2) These concentrations were selected on the basis of proliferative effects in 2D cultures.

T47D:A18/PKCα cells [4] = test: Colony formation assay in […], T47D:A18/PKCα; assay type: cell-based; details: 3D culture, 10 days; E2 1 nM, BTC 100 nM, TTC-352 100 nM
Protocol: as §1, §2

[5] = system: ERα transcriptional activity in T47D:A18/neo cells; assay type: cell-based
[6] = system: ERα transcriptional activity in T47D:A18/PKCα cells; test: ERE-luciferase reporter assay, T47D:A18/PKCα; assay type: cell-based; details: for ER agonist character in T47D:A18/PKCα cells in vitro: ERE-luciferase, 1 nM, 10 nM, 100 nM
[7] = Plasma levels of BTC after oral administration to mice; assay type: in vivo; details: single oral dose 10 mg/kg, ovariectomized athymic nude mice
T47D:A18/PKCα tumors = test: T47D:A18/PKCα xenograft tumor regression; assay type: in vivo, mice; details: for persistence of T47D:A18/PKCα tumor regression after end of treatment: after two weeks of 1.5 mg/day p.o.; for T47D:A18/PKCα mean tumor size / T47D:A18/PKCα tumor regression: at two weeks; for T47D:A18/PKCα mean tumor size: 1.5 mg/day p.o.; for T47D:A18/PKCα tumor regression: 1.5 mg/day p.o. (E2: capsule), start ~0.5 cm^2 = 100%
ERα = molecular target: T1, ERα (Homo sapiens, UniProt P03372); test: ERα localization in T47D:A18/PKCα tumors by immunofluorescence; assay type: in vivo, mice; details: immunofluorescence staining of tumors
T1 sequence (P03372 1-595): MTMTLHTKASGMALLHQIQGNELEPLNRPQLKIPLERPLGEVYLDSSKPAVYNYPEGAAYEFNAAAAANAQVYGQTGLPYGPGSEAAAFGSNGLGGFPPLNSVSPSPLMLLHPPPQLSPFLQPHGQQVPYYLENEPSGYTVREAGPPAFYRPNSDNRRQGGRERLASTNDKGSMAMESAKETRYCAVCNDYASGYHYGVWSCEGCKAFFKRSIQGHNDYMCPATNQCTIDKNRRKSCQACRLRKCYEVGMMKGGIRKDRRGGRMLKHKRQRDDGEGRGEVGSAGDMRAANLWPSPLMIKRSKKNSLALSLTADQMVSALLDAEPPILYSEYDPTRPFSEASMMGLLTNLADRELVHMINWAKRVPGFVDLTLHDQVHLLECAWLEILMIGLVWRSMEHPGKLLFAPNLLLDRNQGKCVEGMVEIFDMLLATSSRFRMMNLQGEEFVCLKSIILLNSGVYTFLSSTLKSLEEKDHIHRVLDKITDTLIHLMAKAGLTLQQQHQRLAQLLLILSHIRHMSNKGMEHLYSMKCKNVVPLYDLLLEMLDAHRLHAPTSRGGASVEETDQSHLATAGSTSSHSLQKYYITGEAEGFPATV
Protocol: Tumor immunofluorescence confocal microscopy and co-localization analysis. Tumor sections (4 μm) were cut from paraffin blocks and prepared for IF staining by deparaffinization and rehydration. Antigen retrieval was performed by incubating slides in Tris-EDTA (pH=9.0) buffer at 90° C. and allowed to cool at room temperature for 45 min. Slides were blocked with antibody diluent (DAKO, Carpinteria, Calif. USA) for 20 min followed by primary antibody at 1:100 in antibody diluent for 1 h at room temperature. Slides were incubated with fluorescence-conjugated secondary antibodies at 1:100 in antibody diluent for 45 min at room temperature followed by DAPI (4′, 6-diamidino-2-phenylindole [1 μg/mL], DAKO, Carpinteria, Calif. USA) for 15 min. Slides were mounted with Vectashield mounting media (Vector Laboratories, Burlingame, Calif. USA). Confocal analysis was performed with a Zeiss LSM 510 microscope (Carl Zeiss, Incorporated, North America, Thornwood, N.Y. USA).
We have previously reported the possible involvement of an extranuclear ER in E2-induced tumor regression (11, 15).

T47D:A18/neo tumors = test: T47D:A18/neo xenograft tumor growth; assay type: in vivo, mice; details: for stimulation of growth of T47D:A18/neo xenograft tumors in vivo: 1.5 mg/day p.o., seven weeks; for T47D:A18/neo average tumor size: following seven weeks of treatment, 1.5 mg/day p.o. (E2: capsule)
[8] = Body weights of mice bearing T47D:A18/neo tumors; assay type: in vivo; details: seven week treatment, 1.5 mg/day p.o.
Description: B) Body weights of treated mice from (A). C) Uterine weights from mice in (A). Weights are reported as uterine weight (mg)/body weight (g). *, P<0.05 versus control. Graphs show mean SEM.
Since BTC and TTC-352 treatment result in growth of T47D:A18/neo cells in 2D culture (FIGS. 1C and 1E) and in 3D […] (FIG. 2A), we next sought to determine if BTC and TTC-352 could sustain the growth of T47D:A18/neo tumors in vivo. […] Additionally, no significant weight loss was observed over the seven week treatment period (FIG. 5B).

uteri [9] = test: Uterine weights of ovariectomized athymic mice (7 weeks); assay type: in vivo; details: following 7 weeks of treatment; 1.5 mg/day p.o. (E2: capsule)
[10] = system: MCF-7 human mammary cancer cells; details: references 16-19; cited from earlier work
[11] = system: Ishikawa human endometrial cancer cells; details: references 16-19; cited from earlier work
[12] = juvenile female rats, after 3 days of drug administration; cited from earlier work
[13] = system: T47D-Tam1 xenograft tumors; test: T47D-Tam1 TAM-resistant xenograft tumors (Example 11); assay type: in vivo, mice; details: TTC-352 1.5 mg/day p.o. daily for seven weeks; E2 capsule
[14] = system: T47D/PKCα xenograft tumors; test: T47D/PKCα TAM-resistant xenograft tumors (Example 11); assay type: in vivo, mice; details: TTC-352 or raloxifene 1.5 mg/day p.o., seven weeks, also after withdrawal; E2 capsule
[15] = silastic capsules (1.0 cm) implanted subcutaneously; reference 14; cited from earlier work
T47D:A18/PKCα cells [16] = details: reference 11; cited from earlier work
uteri [17] = details: references 29-32, cited from earlier work
[18] = humans; cited from earlier work
uteri [19] = test: Uterine weights of mice (Example 11); assay type: in vivo; details: TTC-352 1.5 mg/day

Row | Compound | effect on the proliferation of T47D:A18/neo cells relative to E2 (T47D:A18/neo cells [1]) | proliferation of T47D:A18/PKCα cells (DNA content) (T47D:A18/PKCα cells [2]) | T47D:A18/neo colony growth in MATRIGEL (T47D:A18/neo cells [3]) | T47D:A18/PKCα colony formation in MATRIGEL (T47D:A18/PKCα cells [4]) | ER agonist character in T47D:A18/PKCα cells in vitro [6] | persistence of T47D:A18/PKCα tumor regression after end of treatment (T47D:A18/PKCα tumors) | T47D:A18/PKCα mean tumor size (T47D:A18/PKCα tumors) | T47D:A18/PKCα tumor regression (T47D:A18/PKCα tumors) | ERα localization in regressing T47D:A18/PKCα tumors (ERα) | stimulation of growth of T47D:A18/neo xenograft tumors in vivo (T47D:A18/neo tumors) | T47D:A18/neo average tumor size (T47D:A18/neo tumors) | body weight of treated mice [8] | uterine weights of ovariectomized mice (uteri [9]) | estrogen agonist/antagonist character in MCF-7 cells [10] | estrogen agonist/antagonist character in Ishikawa cells [11] | potency in Ishikawa cells relative to E2 [11] | T47D-Tam1 xenograft tumor response [13] | T47D/PKCα xenograft tumor response [14] | further results
1 | Oc1ccc(-c2cc3ccc(O)cc3s2)cc1 [BTC, 2-(4-hydroxyphenyl)benzo[b]thiophen-6-ol] | comparable to E2(1 nM) treatment | proliferated in the presence of BTC and TTC-352 at all concentrations tested | stimulated | inhibited | act as ER agonists | sustained for at least four weeks post-treatment | ~0.07 cm^2 | ~88% | exit of ERα from the nucleus | neither compound was able to significantly stimulate the growth | ~0.04 cm^2 | no effect | no significant increase in the uterine weights | estrogen agonist | nanomolar estrogen agonists | three orders of magnitude below that of E2 | – | – | ERα transcriptional activity (ERE-luciferase) in T47D:A18/neo cells [5]: increase in ERα transcriptional activity; ERE-luciferase induction in T47D:A18/PKCα cells compared with T47D:A18/neo cells ([6]; 100 nM and 10 nM): more sensitive than T47D:A18/neo cells; concentration at 6 h ([7]; female, mouse, plasma, 6 h): 10 ng/mL; peak plasma concentration ([7]; at 30 min): 40 ng/mL
2 | Oc1ccc(-c2sc3cc(O)ccc3c2Oc2ccc(OCCN3CCCCC3)cc2)cc1 [DMA, Desmethylarzoxifene] | – | – | – | – | – | – | – | – | – | – | – | – | – | – | – | – | – | – | remaining drug in plasma [12]: not observed above detection limits
3 | C[C@]12CC[C@@H]3c4ccc(O)cc4CC[C@H]3[C@@H]1CC[C@@H]2O [E2, 17β-estradiol, reference compound] | – | – | stimulated | inhibited | – | – | – | ~98% | – | – | ~0.35 cm^2 | – | significant proliferative actions | – | – | – | growth is inhibited by E2 treatment | growth is inhibited by E2 treatment | mean serum E2 level [15]: 379.5 pg/mL
4 | O=C(c1ccc(OCCN2CCCCC2)cc1)c1c(-c2ccc(O)cc2)sc2cc(O)ccc12 [RAL, raloxifene] | – | – | – | – | – | failure of RAL-induced regression to persist after drug withdrawal | – | ~50% | – | – | – | – | – | estrogen antagonist | estrogen antagonist | – | – | caused tumor regression, however, drug withdrawal led to relapse | T47D:A18/PKCα MATRIGEL colony formation (previously reported) (T47D:A18/PKCα cells [16]): unable to inhibit MATRIGEL colony formation; luminal epithelial cell thickness in ovariectomized rats (uteri [17]; doses up to 10 mg/kg/day): did not increase luminal epithelial cell thickness; uterine weight in ovariectomized rats (uteri [17]; minimally effective dose): did not increase uterine weight; oral clearance [18]: 441 kg⁻¹ h⁻¹
5 | CC/C(=C(\c1ccccc1)c1ccc(OCCN(C)C)cc1)c1ccccc1 [TAM, tamoxifen] | – | – | – | – | – | – | – | – | – | – | – | – | significant proliferative actions | – | – | – | – | TAM-resistant | –
6 | Oc1ccc(Oc2sc3cc(O)ccc3c2-c2ccc(F)cc2)cc1 [TTC-352, 3-(4-fluorophenyl)-2-(4-hydroxyphenoxy)benzo[b]thiophen-6-ol] | comparable to E2(1 nM) treatment | proliferated in the presence of BTC and TTC-352 at all concentrations tested | stimulated | inhibited | act as ER agonists | sustained for at least four weeks post-treatment | ~0.18 cm^2 | ~70% | exit of ERα from the nucleus | neither compound was able to significantly stimulate the growth | ~0.1 cm^2 | no effect | no significant increase in the uterine weights | estrogen agonist | nanomolar estrogen agonists | three orders of magnitude below that of E2 | tumor regression comparable to that of E2-treated tumors | tumor regression comparable to that of E2-treated tumors | ERα transcriptional activity (ERE-luciferase) in T47D:A18/neo cells ([5]; 24 hours): increase in ERα transcriptional activity; uterine weight in mice (uteri [19]): did not increase uterine weight
